Measured values taken from US20120022045A1, “BRIDGED COMPOUNDS AS HIV INTEGRASE INHIBITORS” (priority 2009, published 2012).
Read-outs that look alike come from different tables or passages of the source.

Tests used:
Assay type in all cases: cell-based
[1] = system: HIV-1 integrase mutant virus Y143R; assay: Single cycle infectivity assay in HeLa P4-2 cells, integrase mutant Y143R virus; conditions: fold shift in IC50 versus wild type IIIB
Method: (§1) An assay for measuring the inhibition of acute HIV-1 infection with HeLa P4-2 cells in a single cycle infectivity assay was conducted using methods described in Joyce et al., J. Biol. Chem. 2002, 277: 45811, Hazuda et al., Science 2000, 287: 646, and Kimpton et al, J. Virol. 1992, 66: 2232. Proviral plasmids encoding viruses containing specific mutations in the integrase gene (N155H, Q148R, Y143R, E92Q, or G140S/Q148H) were generated by site-directed mutagenesis, and viruses were produced by transfecting 293T cells with the appropriate proviral plasmids.

[2] = system: HIV-1 wild type IIIB; assay: Single cycle infectivity assay in HeLa P4-2 cells, wild type virus
Method: as §1

[3] = system: HIV-1 integrase mutant virus N155H; assay: Single cycle infectivity assay in HeLa P4-2 cells, integrase mutant N155H virus; conditions: fold shift in IC50 versus wild type IIIB
Method: as §1

[4] = system: HIV-1 integrase mutant virus Q148R; assay: Single cycle infectivity assay in HeLa P4-2 cells, integrase mutant Q148R virus; conditions: fold shift in IC50 versus wild type IIIB
Method: as §1

[5] = system: HIV-1 integrase mutant virus G140S/Q148H; assay: Single cycle infectivity assay in HeLa P4-2 cells, integrase mutant G140S/Q148H virus; conditions: fold shift in IC50 versus wild type IIIB
Method: as §1

[6] = system: HIV-1; assay: Inhibition of acute HIV-1 infection of T-lymphoid cells (spread assay); conditions: 10% FBS, read-out: IC95 (nM) in the presence of 10% FBS
Method: Assays for the inhibition of acute HIV-1 infection of T-lymphoid cells were conducted in accordance with Vacca, J. P. et al., Proc. Natl. Acad. Sci. USA 1994, 91: 4096.

[7] = Human immunodeficiency virus 1, IIIB, HeLaP4-2, wild type IIIB
[8] = Human immunodeficiency virus 1, T-lymphoid

CCCN(C(=O)C(=O)N(C)C)C12CCC(Cn3c1nc(C(=O)NCc1ccc(F)cc1)c(O)c3=O)OC2 (stereo not drawn) [Example 19, N-(4-{[(4-fluorolbenzyl)amino]carbonyl}-5-hydroxy-6-oxo-10-oxa-3,7-diazatricyclo[7.2.2.0^2,7]trideca-2,4-dien-1-yl)-N′,N′-dimethyl-N-propylethanediamide]
Y143R (shift) [1]: 7 fold | IC50 [2, 7]: 8 nM | N155H (shift) [3]: 45 fold | Q148R (shift) [4]: 59 fold | G140S/Q148H (shift) [5]: >209 fold | IC95 [6, 8]: 15.9 nM

COC12CCC(N(C)C(=O)C(=O)N(C)C)(CC1)c1nc(C(=O)NCc3ccc(F)c(C)c3)c(O)c(=O)n1C2 [Example 14, N-(4-{[(4-Fluoro-3-methylbenzyl)amino]carbonyl}-5-hydroxy-9-methoxy-6-oxo-3,7-diazatricyclo[7.2.2.0^2,7]trideca-2,4-dien-1-yl)-N,N′,N′-trimethylethanediamide]
Y143R (shift) [1]: 2 fold | IC50 [2, 7]: 12 nM | N155H (shift) [3]: 2 fold | Q148R (shift) [4]: 1 fold | G140S/Q148H (shift) [5]: 4 fold | IC95 [6, 8]: 13.1 nM

CCN(C(=O)C(=O)N(C)C)C12CCC(Cn3c1nc(C(=O)NCc1ccc(F)c(C)c1)c(O)c3=O)OC2 (single isomer, unassigned) [Example 18B, N-ethyl-N-(4-{[(4-fluoro-3-methylbenzyl)amino]carbonyl}-5-hydroxy-6-oxo-10-oxa-3,7-diazatricyclo[7.2.2.0^2,7]trideca-2,4-dien-1-yl)-N,N-dimethylethanediamide]
Y143R (shift) [1]: 2 fold | IC50 [2, 7]: 10 nM | N155H (shift) [3]: 2 fold | Q148R (shift) [4]: 2 fold | G140S/Q148H (shift) [5]: 19 fold | IC95 [6, 8]: 10.7 nM

CN(C)C(=O)C(=O)N(C)C12CCC(CC1)n1c2nc(C(=O)NCc2ccc(F)cc2)c(O)c1=O [Example 30]
Y143R (shift) [1]: 3 fold | IC50 [2, 7]: 17 nM | N155H (shift) [3]: 7 fold | Q148R (shift) [4]: 9 fold | G140S/Q148H (shift) [5]: 32 fold | IC95 [6, 8]: 22.4 nM

CCC12CCC(NC(=O)C(=O)N(C)C)(CO1)c1nc(C(=O)NCc3ccc(F)cc3)c(O)c(=O)n1C2 (single isomer, unassigned) [Example 22B, N′-(9-ethyl-4-{[(4-fluorolbenzyl)amino]carbonyl}-5-hydroxy-6-oxo-10-oxa-3,7-diazatricyclo[7.2.2.0^2,7]trideca-2,4-dien-1-yl)-N,N-dimethylethanediamide]
Y143R (shift) [1]: 1 fold | IC50 ([2]; wild type IIIB): 19 nM | N155H (shift) [3]: 3 fold | Q148R (shift) [4]: 3 fold | G140S/Q148H (shift) [5]: 10 fold | IC95 [6]: 12.6 nM

CN(C)C(=O)C(=O)N(C)C12CCC(O)(CC1)Cn1c2nc(C(=O)NCc2ccc(F)cc2)c(O)c1=O [Example 17, N-(4-{[(4-Fluorobenzyl)amino]carbonyl}-5,9-dihydroxy-6-oxo-3,7-diazatricyclo[7.2.2.0^2,7]trideca-2,4-dien-1-yl)-N,N′,N′-trimethylethanediamide]
Y143R (shift) [1]: 1 fold | IC50 [2, 7]: 46 nM | N155H (shift) [3]: 3 fold | Q148R (shift) [4]: 3 fold | G140S/Q148H (shift) [5]: 38 fold | IC95 [6, 8]: 20.5 nM

CN(C)C(=O)C(=O)N(C)C12CCC(C)(Cn3c1nc(C(=O)NCc1ccc(F)cc1)c(O)c3=O)OC2 (single isomer, unassigned) [Example 21A]
Y143R (shift) [1]: 1 fold | IC50 [2, 7]: 20 nM | N155H (shift) [3]: 3 fold | Q148R (shift) [4]: 3 fold | G140S/Q148H (shift) [5]: 73 fold | IC95 [6, 8]: 20 nM

COC12CCC(N(C)C(=O)C(=O)N(C)C)(CC1)c1nc(C(=O)NCc3ccc(F)cc3)c(O)c(=O)n1C2 [Example 15, N-(4-{[(4-Fluorobenzyl)amino]carbonyl}-5-hydroxy-9-methoxy-6-oxo-3,7-diazatricyclo[7.2.2.0^2,7]trideca-2,4-dien-1-yl)-N,N′,N′-trimethylethanediamide]
Y143R (shift) [1]: 1 fold | IC50 [2, 7]: 23 nM | N155H (shift) [3]: 2 fold | Q148R (shift) [4]: 1 fold | G140S/Q148H (shift) [5]: 9 fold | IC95 [6, 8]: 9.5 nM

CN(C)C(=O)C(=O)N(C)C12CCC(Cn3c1nc(C(=O)NCc1ccc(F)cc1)c(O)c3=O)OC2 (single isomer, unassigned) [Example 23A]
Y143R (shift) [1]: 1 fold | IC50 ([2]; wild type IIIB): 21 nM | N155H (shift) [3]: 7 fold | Q148R (shift) [4]: 6 fold | G140S/Q148H (shift) [5]: 84 fold | IC95 [6]: 16.7 nM

CC1C2CCC(N(C)C(=O)C(=O)N(C)C)(CO2)c2nc(C(=O)NCc3ccc(F)cc3)c(O)c(=O)n21 (single isomer, unassigned) [Example 27B, N-(4-{[(4-fluorobenzyl)amino]carbonyl}-5-hydroxy-8-methyl-6-oxo-10-oxa-3,7-diazatricyclo[7.2.2.0^2,7]trideca-2,4-dien-1-yl)-N,N′,N′-trimethylethanediamide]
Y143R (shift) [1]: 7 fold | IC50 ([2]; wild type IIIB): 24 nM | N155H (shift) [3]: 20 fold | Q148R (shift) [4]: 9 fold | G140S/Q148H (shift) [5]: >70 fold | IC95 [6]: 27.3 nM

CCC1C2CCC(N(C)C(=O)C(=O)N(C)C)(CO2)c2nc(C(=O)NCc3ccc(F)cc3)c(O)c(=O)n21 (single isomer, unassigned) [Example 25D, N-(8-ethyl-4-{[(4-fluorobenzyl)amino]carbonyl}-5-hydroxy-6-oxo-10-oxa-3,7-diazatricyclo[7.2.2.0^2,7]trideca-2,4-dien-1-yl)-N,N′,N′-trimethylethanediamide]
Y143R (shift) [1]: 3 fold | IC50 ([2]; wild type IIIB): 15 nM | N155H (shift) [3]: 98 fold | Q148R (shift) [4]: 38 fold | G140S/Q148H (shift) [5]: >111 fold | IC95 [6]: 7.2 nM

Cc1nnc(C(=O)N(C)C23CCC(Cn4c2nc(C(=O)NCc2ccc(F)cc2)c(O)c4=O)C3)o1 (stereo not drawn) [Example 7, N-(4-Fluorobenzyl)-3-hydroxy-10-{methyl[(5-methyl-1,3,4-oxadiazol-2-yl)carbonyl]amino}-4-oxo-4,6,7,8,9,10-hexahydro-7,10-methanopyrimido[1,2-a]azepine-2-carboxamide]
Y143R (shift) [1]: 2 fold | IC50 [2, 7]: 80 nM | N155H (shift) [3]: 3 fold | Q148R (shift) [4]: 4 fold | G140S/Q148H (shift) [5]: 44 fold | IC95 [6, 8]: 9.6 nM

CCC1C2CCC(N(C)C(=O)C(=O)N(C)C)(CO2)c2nc(C(=O)NCc3ccc(F)cc3)c(O)c(=O)n21 (single isomer, unassigned) [Example 25B, N-(8-ethyl-4-{[(4-fluorobenzyl)amino]carbonyl}-5-hydroxy-6-oxo-10-oxa-3,7-diazatricyclo[7.2.2.0^2,7]trideca-2,4-dien-1-yl)-N,N′,N′-trimethylethanediamide]
Y143R (shift) [1]: 1 fold | IC50 ([2]; wild type IIIB): 8 nM | N155H (shift) [3]: 1 fold | Q148R (shift) [4]: 1 fold | G140S/Q148H (shift) [5]: 1 fold | IC95 [6]: 7.9 nM

CC1C2CCC(NC(=O)C(=O)N(C)C)(CO2)c2nc(C(=O)NCc3ccc(F)cc3)c(O)c(=O)n21 (single isomer, unassigned) [Example 29D, N′-(4-{[(4-Fluorobenzyl)amino]carbonyl}-5-hydroxy-8-methyl-6-oxo-10-oxa-3,7-diazatricyclo[7.2.2.0^2,7]trideca-2,4-dien-1-yl)-N-dimethylethanediamide]
Y143R (shift) [1]: 1 fold | IC50 ([2]; wild type IIIB): 21 nM | N155H (shift) [3]: 2 fold | Q148R (shift) [4]: 1 fold | G140S/Q148H (shift) [5]: 2 fold | IC95 [6]: 21.6 nM
